Measured values published in patent publication US20100234366A1, “Use of Strobilurins for the Treatment of Disorders of Iron Metabolism” (BSF SE, priority 2006, published 2010).

Columns and labels:
[1] = system: male Wistar rats; experiment: Treatment of rats with dimoxystrobin (iron concentration in the blood); format: in vivo, rat; details: for average iron level in the blood: fourth group: 6-week old rats; for average iron level in the blood / blood level of iron: 500 ppm each day via the food; for blood level of iron: second group: 3-week old rats; for level of iron in the blood: sixth group: 3-week old rats, 250 ppm each day
Protocol: 10 g of the phenylacetic acid derivative dimoxystrobin were prepared by known methods and purified by conventional methods.
Both 3-week old and 6-week old male Wistar rats (see Example 1) were employed for the subsequent experiments. These rats were divided into 6 equally sized groups of 10 rats. The rats were housed under conventional conditions.
The first group consisted of 3-week old rats. They received only the regular food over the entire period of the experiment.
The second group likewise consisted of 3-week old rats. The animals received 500 ppm (milligrams of test substance per […]) of dimoxystrobin each day. It was supplied via the food.
The third group consisted of 6-week old rats which received no active ingredient via the food.
The fourth group consisted of 6-week old rats which received 500 ppm dimoxystrobin via the food each day.
The fifth group consisted of 3-week old rats which received no active ingredient.
The sixth group consisted of 3-week old rats which received 250 ppm of the test substance dimoxystrobin each day.
The iron concentrations in the blood were determined both after 2 days and after 7 days.

[2] = system: male Wistar rats; experiment: Treatment of rats with an elevated iron level (iron level in the blood); format: in vivo, rat
Protocol: Two grams of the phenylacetic acid derivative orysastrobin were prepared by known methods and purified by conventional methods.
Six-week old male Wistar rats (Elévage Janvier, France) were employed for the experiments. These rats, which were housed under conventional conditions (20-24° C., 30-70% humidity, 12 hours illumination, standard food) were divided into five groups of equal size.
The first group was treated with no iron compound and no strobilurin derivative.
The second group was treated only with 200 mg of the phenylacetic acid derivative orysastrobin (as suspension by gavage).
The third group received a single intramuscular injection of 50 mg/kg of an iron(III) hydroxide-dextran complex (Myofer® 100), 1 ml of the injection solution comprising 320 mg of the complex (equivalent to 195 mg of Fe(OH)3).
The fourth group received both an injection of 50 mg/kg of the iron complex and, after 6 hours, a dose of 200 mg/kg of the strobilurin derivative by gavage.
The fifth group received both an injection of 50 mg/kg of the iron complex and, after 24 hours, a dose of 200 mg/kg of the strobilurin derivative by gavage.
24 hours before the start of the test, a blood sample was taken from all the rats, in each case at 8 o'clock in the morning of the preceding day, and was analyzed. The iron complex and/or the strobilurin derivative was administered at 8 o'clock in the morning of the day of the experiment. Further blood samples were taken from all the rats at 2 o'clock in the afternoon of the day of the experiment and at 8 o'clock in the morning of the next day, and were analyzed.

[3] = system: HFE mice; experiment: Treatment of HFE mice (serum iron level, model of hemochromatosis); format: in vivo, mouse; details: for reduction of serum iron concentration compared with control group: 2000 ppm in the food, 7 days
Protocol: This genetic defect leads to HFE mice having an elevated iron level in the liver, and this can serve as model of hemochromatosis disorder in humans. The HFE mice employed in the experiments were 12 to 23 weeks old (obtained from University College London, Department of Biochemistry and Molecular Biology).
The housing conditions of the mice corresponded to typical standards as have also been described in Example 1. In the experiments, investigations were carried out both with male HFE mice and with female HFE mice. In each case one group of animals received over a period of 7 days 2000 ppm of the phenylacetic acid derivative orysastrobin each day. The product was supplied freely in the food. The comparison group received only the regular food.

finding at the duodenum ([1]; rats treated with dimoxystrobin, occurred only in the adult animals)	SMILES	average iron level in the blood ([1]; after 2 days, control 43.1)	average iron level in the blood ([1]; after 7 days, control 44.0)	blood level of iron ([1]; after 2 days, control 92.6)	blood level of iron ([1]; after 7 days)	level of iron in the blood ([1]; after 2 days, control 96.7)	level of iron in the blood ([1]; after 7 days, control 96.1)	iron level in the blood ([2]; fifth group: 50 mg/kg iron complex i.m. plus 200 mg/kg orysastrobin by gavage, after 24 hours, iron only 147.8)	iron level in the blood ([2]; fourth group: 50 mg/kg iron complex i.m. plus 200 mg/kg orysastrobin by gavage, after 6 hours, iron only 153.9)	iron level in the blood ([2]; second group: only 200 mg orysastrobin by gavage, no iron, 6 hours after administration, untreated control 47.8)	iron level in the blood ([2]; second group: only 200 mg orysastrobin by gavage, no iron, after 24 hours, untreated control 47.8)	iron level (serum) ([3]; female HFE mice, 2000 ppm each day in the food, after one week, control 51.2)	reduction of serum iron concentration compared with control group ([3]; female HFE mice)	serum iron level ([3]; male HFE mice, 2000 ppm each day in the food, after one week, control 40.06)	reduction of serum iron concentration compared with control group ([3]; male HFE mice)
distinct thickening of the duodenum	CNC(=O)/C(=N/OC)c1ccccc1COc1cc(C)ccc1C [dimoxystrobin, (E)-2(methoximino)-N-methyl-2-[α-(2,5-xylyloxy)-o-tolyl]acetamide]	34.2 µmol/L	36 µmol/L	35.8 µmol/L	33.6 µmol/L	56 µmol/L	59.7 µmol/L								
	CNC(=O)/C(=N/OC)c1ccccc1CO/N=C(C)/C(=N/OC)C(/C)=N/OC [orysastrobin, (2E)-2(methoximino)-2-[2-[(3E,5E,6E)-5-(methoximino)-4,6-dimethyl-2 , 8-dioxa-3,7-diazanona-3,6-dien-1-yl]phenyl]-N-methylacetamide]							91.9 µmol/L	83.1 µmol/L	20.6 µmol/L	26.3 µmol/L	36.66 µmol/L	about 28%	30.62 µmol/L	about 24%
